These results are taken from patent US5637619A, “Antitumor 2-aminocarbonyl-1, 2-bis(methylsulfonyl)-1-(substituted)hydrazines” (Yale University, priority 1995, dated 1997).

Data set [1] in a line: Body weight change / toxicity in L1210-bearing mice. Type of data set: in vivo, mice (CD2F1). The following applies: L1210-bearing mice. On the procedure:
(§1) Leukemia L1210 cells were obtained from the Frederick Cancer Research Facility, Division of Cancer Treatment Tumor Repository of the National Cancer Institute, and were maintained by serial passage in tissue culture. Every 8 weeks, tumor cells were injected intraperitoneally into five donor CD2 F1 mice 8- to 10- weeks of age and were allowed to grow for 7 days. The peritoneal fluid was withdrawn and the suspension was centrifuged for 5 min at 1600 g. The supernatant was decanted and 10^5 cells/mL were seeded into 10 mL of RPMI 1640 medium supplemented with 10% fetal bovine serum and 1% L-glutamine, and once again maintained in culture. To assay for antineoplastic activity, 0.1 mL of the cell suspension containing 10^5 L1210 leukemia cells was injected ip into each recipient mouse. Test compounds were administered over a wide range of dosage levels, beginning 24 h after tumor implantation, and continued once daily for 6 consecutive days. All drugs were administered ip as a solution in 100% dimethylsulfoxide (DMSO), in a volume not exceeding 0.025 mL. […] Mice were weighed during the course of the experiments, and the percentage change in body weight from onset to termination of therapy was used as an indication of drug toxicity. Determination of the sensitivity of neoplasms to these agents was based upon the prolongation of survival time afforded by the drug treatments.
(§2) ^a Administered ip once daily for six consecutive days, beginning 24 hours after tumor implantation, with 5-10 mice being used per group. ^b Average percent change in body weight from onset to termination of therapy. ^c % T/C=average survival time of treated/control mice×100; cures (>60-day survivors) are listed separately and are not included in this calculation.

Another data set deals with L1210 leukemia. The experiment in a line: L1210 leukemia survival time in mice (ip implanted). It is filed as in vivo, mice (CD2F1). To be noted: for %T/C (average survival time treated/control × 100): cures not included. As for the experimental part:
as §1, §2

For the next data set, the system named is M109 lung carcinoma. The experiment in a line: M109 lung carcinoma, sc implanted. Type of data set: in vivo, BALB/c mice. As for the experimental part:
The M5076 reticulum cell sarcoma was passaged biweekly by sc transfer of tumor fragments into C57BL/6 mice, and the M109 lung carcinoma was similarly passaged in BALB/c mice. The LX-1 human lung carcinoma was passaged sc every two to three weeks in BALB/c-background athymic (nu/nu) mice. For use in these systems, compound III was dissolved in: (a) 100% DMSO and administered by iv injection in a fixed volume of 10 microliters; or (b) DMSO diluted with saline to a final concentration of 10% DMSO and administered iv in a volume of 0.01 milliliter/g of body weight. […] Mitomycin C and cyclophosphamide were dissolved and administered in saline. BCNU and MeCCNU were dissolved in ethanol and diluted 1:9 (v/v) with water prior to administration.
Five mice per group were employed in experiments with the B16F10 melanoma, and 8 mice per group with the M5076 sarcoma, the M109 carcinoma and the LX-1 carcinoma. A minimum of two dose levels per compound were included in each evaluation and drug therapy was initiated 24 h after tumor implantation for the M5076 sarcoma and M109 carcinoma. In the LX-1 experiment, tumor bearing mice were selected and sorted into treatment and control groups on day 6 post-tumor implant such that all tumor weights ranged from 50-100 mg and median tumor weights per group were reasonably similar. Therapeutic results are presented in terms of: (a) increases in lifespan reflected by the relative median survival time (MST) of treated versus control groups (i.e., %T/C values), and by long-term survivors, and (b) primary tumor growth inhibition (i.e., T-C values) determined by calculating the relative median times for treated (T) and control untreated (C) mice to grow tumors of a 0.5 g size for the LX-1 carcinoma or a 1 g size for the murine neoplasms. Tumor weights were interchangeable with tumor size on the basis of 1 mm^3 =1 mg. […] The activity criterion for tumor inhibition was a delay in tumor growth consistent with one log10 cell kill (LCK). The absolute T-C value needed to attain this level of efficacy varied from experiment to experiment and depended upon the tumor volume doubling time of the control mice in each study. Treated mice dying prior to day 10 in the ip M109 experiment, or dying before their tumors achieved 0.5 g for the LX-1 carcinoma or 1 g in size for all other sc tumor models, were considered to have died from drug toxicity. Groups of mice with more than one death due to drug toxicity were not used in the evaluation of antitumor efficacy. Statistical evaluations of data were performed using Gehan's generalized Wilcoxan test (Gehan, Biometrika, 1965, 52, 203-233).
Compound III was also evaluated against the M109 lung carcinoma implanted subcutaneously (sc). In the initial test using this model, a dose of 50 mg/kg per injection of this compound was administered intravenously (iv) in 10% DMSO in saline every fourth day for a total of three injections. […] Mitomycin C, used as a reference drug, produced a maximum %T/C of 103 and a delay in tumor growth of 10 days (data not shown). A subsequent evaluation of compound III was performed using four different doses on a slightly different schedule, i.e., 24, 32, 48 and 64 mg/kg administered every third day for four total injections, and two vehicles, 10% DMSO in saline and 100% DMSO. […] Cyclophosphamide and mitomycin C were included as reference drugs in the last experiment. The former compound produced a maximum %T/C of 143 and a delay in tumor growth of 8.8 days, while mitomycin C produced a maximum %T/C of 134 and a T-C value of 9.3 days (data not shown). As reported earlier, compound X achieved a maximum %T/C of 136 and a maximum T-C value of 14.5 days against this tumor (Shyam, et al., J. Med. Chem., 1993, 36, 3496).

[2] abbreviates: reference drugs in last experiment (experiment b).
The mark [3] stands for this setting: reference drug in initial test (experiment a).

On to `C=CCNC(=O)N(N(CCCl)S(C)(=O)=O)S(C)(=O)=O` [Compound V, 2-Allylaminocarbonyl-1,2-bis(methylsulfonyl)-1-(2-chloroethyl)hydrazine], for which the “Av. Wt. Change %” value in data set [1] (5 mg/kg ip once daily × 6) is given as -1.6%; in data set [1] (10 mg/kg ip once daily × 6), -2.1%; in data set [1] (15 mg/kg ip once daily × 6), -2.9%. Moreover, the “% 60 Day Survivors (cures)” value was determined as 20% in the data set on L1210 leukemia (5 mg/kg ip once daily × 6), 40% in the data set on L1210 leukemia (10 mg/kg ip once daily × 6) and 100% in the data set on L1210 leukemia (15 mg/kg ip once daily × 6). Further, the results for the “%T/C (average survival time treated/control × 100)” value in the data set on L1210 leukemia (5 mg/kg ip once daily × 6) and with L1210 leukemia (10 mg/kg ip once daily × 6) were 184% and 394%, respectively. In the data set with L1210 leukemia (qualitative, L1210 leukemia in mice), the “antileukemic activity / therapeutic potential (in words)” value is recorded as “highly efficacious against this tumor”.
On to `CCOC(=O)C(Cc1ccccc1)NC(=O)N(N(CCCl)S(C)(=O)=O)S(C)(=O)=O` (centres unmarked) [Compound IX, 1,2-Bis(methylsulfonyl)-1-(2-chloroethyl)-2-(1-ethoxycarbonyl-2-phenylethyl)aminocarbonylhydrazine], for which the “Av. Wt. Change %” value is -2.5% in data set [1] (5 mg/kg ip once daily × 6); -0.5% in data set [1] (10 mg/kg ip once daily × 6); -1.9% in data set [1] (15 mg/kg ip once daily × 6); -1.9% in data set [1] (20 mg/kg ip once daily × 6); -0.9% in data set [1] (25 mg/kg ip once daily × 6); -2.0% in data set [1] (50 mg/kg ip once daily × 6). Also, the “Av. Wt. Change %” value is recorded as -2.0% in data set [1] (100 mg/kg ip once daily × 6) and -5.0% in data set [1] (150 mg/kg ip once daily × 6). The “%T/C (average survival time treated/control × 100)” value with L1210 leukemia (5 mg/kg ip once daily × 6) is reported as 147%; in the data set on L1210 leukemia (10 mg/kg ip once daily × 6), 165%; in the data set with L1210 leukemia (15 mg/kg ip once daily × 6), 160%; with L1210 leukemia (20 mg/kg ip once daily × 6) it was 174%; in the data set with L1210 leukemia (25 mg/kg ip once daily × 6) it was 177%; in the data set on L1210 leukemia (50 mg/kg ip once daily × 6), 225%. The “%T/C (average survival time treated/control × 100)” value with L1210 leukemia (150 mg/kg ip once daily × 6) is reported as 169%. For the same molecule, the “% 60 Day Survivors (cures)” value in the data set with L1210 leukemia (50 mg/kg ip once daily × 6) is recorded as 60%; in the data set with L1210 leukemia (100 mg/kg ip once daily × 6), 100%; in the data set with L1210 leukemia (150 mg/kg ip once daily × 6), 20%.
As to `CS(=O)(=O)N(CCCl)N(C(=O)NCCCCl)S(C)(=O)=O` [Compound VI, 1,2-Bis(methylsulfonyl)-1-(2-chloroethyl)-2-(3-chloropropyl)aminocarbonylhydrazine], the results for the “Av. Wt. Change %” value in data set [1] (5 mg/kg ip once daily × 6), in data set [1] (10 mg/kg ip once daily × 6) and in data set [1] (15 mg/kg ip once daily × 6) were -2.8%, -5.6% and -8.8%, respectively. Further, the figures for the “%T/C (average survival time treated/control × 100)” value with L1210 leukemia (5 mg/kg ip once daily × 6), with L1210 leukemia (10 mg/kg ip once daily × 6) and in the data set on L1210 leukemia (15 mg/kg ip once daily × 6) were 111%, 187% and 192%, respectively. The “% 60 Day Survivors (cures)” value in the data set with L1210 leukemia (15 mg/kg ip once daily × 6) was found to be 20%. Further, in the data set with L1210 leukemia (highest dosage level examined (15 mg/kg × 6)), the “cure rate (in words)” value is “partial cure rate of tumor-bearing mice”.
Consider `O=P1(N(CCCl)CCCl)NCCCO1` (centres unmarked) [Cyclophosphamide, cyclophosphamide, reference compound], for which, in the data set on M109 lung carcinoma (setting [2]), the “delay in tumor growth (T-C)” value is on record as 8.8 days and the “maximum %T/C” value amounted to 143%.
Consider `CO[C@@]12[C@H](COC(N)=O)C3=C(C(=O)C(C)=C(N)C3=O)N1C[C@@H]1N[C@@H]12` [Mitomycin C, mitomycin C, reference compound], for which, in the data set on M109 lung carcinoma (setting [3]), the “delay in tumor growth (T-C)” value was found to be 10 days and the “maximum %T/C” value is 103%. Also, in the data set with M109 lung carcinoma (setting [2]), the “delay in tumor growth (T-C)” value was 9.3 days and the “maximum %T/C” value is reported as 134%.
As to `CCOC(=O)C(C)NC(=O)N(N(CCCl)S(C)(=O)=O)S(C)(=O)=O` (centres unmarked) [Compound VIII, 1,2-Bis(methylsulfonyl)-1-(2-chloroethyl)-2-(1-ethoxycarbonylethyl)aminocarbonylhydrazine], the “Av. Wt. Change %” value in data set [1] (5 mg/kg ip once daily × 6) was -2.0%; in data set [1] (10 mg/kg ip once daily × 6), -1.4%; in data set [1] (15 mg/kg ip once daily × 6), -0.5%; in data set [1] (20 mg/kg ip once daily × 6), -1.5%; in data set [1] (25 mg/kg ip once daily × 6) it was -2.5%; in data set [1] (50 mg/kg ip once daily × 6), -3.3%. Further, the “Av. Wt. Change %” value in data set [1] (75 mg/kg ip once daily × 6) and in data set [1] (100 mg/kg ip once daily × 6) was -2.5% throughout. For the same molecule, the “%T/C (average survival time treated/control × 100)” value is 170% in the data set on L1210 leukemia (5 mg/kg ip once daily × 6); 178% with L1210 leukemia (10 mg/kg ip once daily × 6); 185% in the data set with L1210 leukemia (15 mg/kg ip once daily × 6); 227% in the data set on L1210 leukemia (20 mg/kg ip once daily × 6); 239% with L1210 leukemia (25 mg/kg ip once daily × 6); 125% in the data set with L1210 leukemia (75 mg/kg ip once daily × 6). Besides, the “%T/C (average survival time treated/control × 100)” value in the data set with L1210 leukemia (100 mg/kg ip once daily × 6) stood at 118%. For the same molecule, the “% 60 Day Survivors (cures)” value with L1210 leukemia (10 mg/kg ip once daily × 6) is reported as 20%; in the data set on L1210 leukemia (25 mg/kg ip once daily × 6), 60%; in the data set on L1210 leukemia (50 mg/kg ip once daily × 6), 100%; in the data set with L1210 leukemia (75 mg/kg ip once daily × 6) it was 80%.
For the molecule `CCOC(=O)CNC(=O)N(N(CCCl)S(C)(=O)=O)S(C)(=O)=O` [Compound VII, 1,2-Bis(methylsulfonyl)-1-(2-chloroethyl)-2-(ethoxycarbonylmethyl)aminocarbonylhydrazine], the “Av. Wt. Change %” value in data set [1] (5 mg/kg ip once daily × 6) is -1.5%; in data set [1] (10 mg/kg ip once daily × 6) it was -1.4%; in data set [1] (15 mg/kg ip once daily × 6), -0.5%; in data set [1] (20 mg/kg ip once daily × 6), -3.7%; in data set [1] (25 mg/kg ip once daily × 6), -0.5%; in data set [1] (50 mg/kg ip once daily × 6), -2.5%. Also, the “Av. Wt. Change %” value in data set [1] (75 mg/kg ip once daily × 6) is reported as -1.5%; in data set [1] (100 mg/kg ip once daily × 6), -4.0%. Moreover, the “%T/C (average survival time treated/control × 100)” value is on record as 151% with L1210 leukemia (5 mg/kg ip once daily × 6); 202% with L1210 leukemia (10 mg/kg ip once daily × 6); 202% in the data set with L1210 leukemia (15 mg/kg ip once daily × 6); 191% in the data set on L1210 leukemia (20 mg/kg ip once daily × 6); 138% in the data set with L1210 leukemia (50 mg/kg ip once daily × 6); 119% in the data set on L1210 leukemia (75 mg/kg ip once daily × 6). The “%T/C (average survival time treated/control × 100)” value in the data set on L1210 leukemia (100 mg/kg ip once daily × 6) came to 115%. Further, the “% 60 Day Survivors (cures)” value in the data set with L1210 leukemia (10 mg/kg ip once daily × 6) is 20%; in the data set on L1210 leukemia (20 mg/kg ip once daily × 6) it was 20%; with L1210 leukemia (25 mg/kg ip once daily × 6), 100%; in the data set with L1210 leukemia (50 mg/kg ip once daily × 6), 80%; with L1210 leukemia (75 mg/kg ip once daily × 6) it was 60%.
